Measurements as given in article PMC6657216, “Defining the Contribution of CYP1A1 and CYP1A2 to Drug Metabolism Using Humanized CYP1A1/1A2 and Cyp1a1/Cyp1a2 Knockout Mice” (Drug Metabolism and Disposition, 2019).
Where “and” joins values, the source holds several entries; their conditions need not be identical. Equal entries are not always repeated. Where two headings read alike, the source gives them in different places.

Tests used:
[1] = tested on: liver microsomes from TCDD-treated Cyp1a KO mice (non-Cyp1a component); assay: EROD in liver microsomes from TCDD-treated Cyp1a KO mice with and without quinidine
Experimental: (§2) Protein enzyme/concentrations were 3.46 pmol/ml for recombinant human CYP1A1, 10.8 pmol/ml for recombinant human CYP1A2, 0.05 mg protein/ml for liver microsomes from TCDD-treated hCYP1A1/1A2 mice, and 0.25 mg protein/ml for liver microsomes from TCDD-treated Cyp1 KO mice and vehicle-treated hCYP1A1/1A2 mice. Where needed, total protein concentration in the reaction mixtures was adjusted using Control Bactosomes (Cypex), so all reactions (including those with the recombinant cytochrome P450s) were carried out at a total protein concentration of 0.25 mg protein/ml. Generation of fluorescent product was registered in a kinetic mode (excitation filter, 530 nm; emission filter, 584 nm). Slopes of the linear part of the kinetic curves were calculated using Ascent Software version 2.4.1 (Labsystems). For each well with the reaction medium, there was a control well containing the reaction mixture with resorufin (40 pmol). Before addition of NADPH to the reaction wells, fluorescence was recorded both from the reaction and from the control wells. The average fluorescence was calculated, and the difference between wells with and without resorufin was used for the conversion of the relative fluorescence units to the picomoles of the reaction product.

[2] = tested on: liver microsomes from TCDD-treated hCYP1A1/1A2 mice; assay: EROD in liver microsomes from TCDD-treated hCYP1A1/1A2 mice: individual contribution of CYP1A1, CYP1A2 and non-Cyp1a; format: in vitro ADME, mouse
Experimental: as §2

recombinant human CYP1A2 [3] = target: T1, recombinant human CYP1A2 (Homo sapiens, UniProt P05177); conditions: read-out: Km ± S.E.; EROD; rCYP1A2
T1 sequence (P05177 1-516): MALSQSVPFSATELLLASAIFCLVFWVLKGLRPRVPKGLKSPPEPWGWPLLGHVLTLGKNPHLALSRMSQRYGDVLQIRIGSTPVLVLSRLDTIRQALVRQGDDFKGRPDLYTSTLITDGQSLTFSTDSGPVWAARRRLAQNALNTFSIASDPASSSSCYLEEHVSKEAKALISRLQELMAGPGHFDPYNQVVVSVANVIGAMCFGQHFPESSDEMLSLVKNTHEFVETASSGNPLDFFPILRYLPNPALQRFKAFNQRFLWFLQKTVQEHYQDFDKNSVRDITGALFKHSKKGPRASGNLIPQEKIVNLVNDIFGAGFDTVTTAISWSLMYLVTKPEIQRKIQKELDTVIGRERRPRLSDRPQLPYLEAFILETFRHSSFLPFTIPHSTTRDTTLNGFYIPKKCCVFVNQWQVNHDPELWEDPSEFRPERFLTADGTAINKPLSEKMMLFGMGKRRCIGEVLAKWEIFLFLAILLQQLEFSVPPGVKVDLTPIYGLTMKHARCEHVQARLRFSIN
Experimental: as §2

recombinant human CYP1A1 [4] = target: T2, recombinant human CYP1A1 (Homo sapiens, UniProt P04798); assay: EROD by recombinant human CYP1A1 with and without quinidine; conditions: for Kd: EROD, rCYP1A1
T2 sequence (P04798 1-512): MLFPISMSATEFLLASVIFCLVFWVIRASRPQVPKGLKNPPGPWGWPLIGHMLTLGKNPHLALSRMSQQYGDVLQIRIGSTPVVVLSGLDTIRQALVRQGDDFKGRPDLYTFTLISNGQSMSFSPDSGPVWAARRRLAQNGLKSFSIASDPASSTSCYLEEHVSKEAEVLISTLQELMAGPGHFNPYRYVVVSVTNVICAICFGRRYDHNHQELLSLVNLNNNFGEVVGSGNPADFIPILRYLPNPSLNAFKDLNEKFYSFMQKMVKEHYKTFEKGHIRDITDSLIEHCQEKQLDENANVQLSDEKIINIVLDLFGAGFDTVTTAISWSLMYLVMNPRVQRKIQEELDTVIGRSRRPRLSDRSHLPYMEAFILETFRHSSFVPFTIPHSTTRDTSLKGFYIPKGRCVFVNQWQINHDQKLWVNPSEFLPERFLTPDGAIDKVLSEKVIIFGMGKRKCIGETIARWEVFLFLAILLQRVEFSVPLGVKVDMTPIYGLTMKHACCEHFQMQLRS
Experimental: (§3) Where needed, total protein concentration in the reaction mixtures was adjusted using Control Bactosomes (Cypex), so all reactions (including those with the recombinant cytochrome P450s) were carried out at a total protein concentration of 0.25 mg protein/ml. […] Slopes of the linear part of the kinetic curves were calculated using Ascent Software version 2.4.1 (Labsystems). For each well with the reaction medium, there was a control well containing the reaction mixture with resorufin (40 pmol). Before addition of NADPH to the reaction wells, fluorescence was recorded both from the reaction and from the control wells. The average fluorescence was calculated, and the difference between wells with and without resorufin was used for the conversion of the relative fluorescence units to the picomoles of the reaction product.

liver microsomes = assay: Constitutive EROD and MROD activity in liver microsomes of WT, Cyp1a KO and hCYP1A1/1A2 mice; format: in vitro ADME, mouse
Experimental: (§1) A mixture of ER (0.93 μM) or MR (0.46 μM) and liver microsomes (0.004–0.27 mg protein/ml) in 100 mM potassium phosphate buffer (pH 7.4) supplemented with MgCl2 (3.3 mM) was incubated at 37°C for 5 minutes before the reaction was initiated by injection of NADPH (final concentration, 1.2 mM). […] Activities in duodenum, ileum, jejunum, colon, lung, kidney, spleen, heart, brain, and testis microsomes were measured as described earlier except for the following adjustments: MR concentration was 1 μM, concentration of total microsomal protein in the reaction was in the range of 0.07–0.43 mg/ml, and amount of resorufin added to calculate the reaction product concentration was 40 pmol.

Recombinant rat CYP1A1 = tested on: Recombinant rat CYP1A1; set-up: method as in Namkung et al., 1988; conditions: recombinant rat enzymes; ref Namkung et al., 1988; cited from earlier work
recombinant human CYP1A1 [5] = target: T2, recombinant human CYP1A1; set-up: host or cells: bacteria (membrane / 'bacterial microsomes' preparation); method as in Liu et al., 2004; conditions: recombinant human enzymes; ref Liu et al., 2004; cited from earlier work
recombinant human CYP1A2 [6] = target: T1, recombinant human CYP1A2; assay: MROD by recombinant human CYP1A2, inhibition by quinidine; conditions: MROD, rCYP1A2
Experimental: (§4) Slopes of the linear part of the kinetic curves were calculated using Ascent Software version 2.4.1 (Labsystems).
as §3

recombinant human CYP1A1 [7] = target: T2, recombinant human CYP1A1; assay: MROD by recombinant human CYP1A1, inhibition by quinidine
Experimental: as §4, §3

[8] = tested on: liver microsomes from TCDD-treated hCYP1A1/1A2 mice; assay: MROD in liver microsomes from TCDD-treated hCYP1A1/1A2 mice: individual contribution of CYP1A1, CYP1A2 and non-Cyp1a; format: in vitro ADME, mouse
Experimental: as §2

[9] = tested on: liver microsomes from TCDD-treated Cyp1a KO mice (non-Cyp1a component); assay: MROD in liver microsomes from TCDD-treated Cyp1a KO mice with and without quinidine
Experimental: as §2

Cyp1a/CYP1A enzymes = assay: TCDD treatment of mice: hepatic total P450, EROD and MROD induction; format: in vivo, mouse; conditions: for increase of total hepatic cytochrome P450: TCDD 10 µg/kg i.p., 48 hours
Experimental: Mice were given a single intraperitoneal dose of TCDD (10 µg/kg) or vehicle control (corn oil) and then euthanized 48 hours after the dosing using a rising concentration of CO2.
Microsomal fractions were prepared as previously described ([Henderson et al., 2019]). In brief, fresh liver samples were homogenized in ice-cold SET(Sucrose-EDTA-Tris) buffer (0.25 M sucrose, 5 mM EDTA, 20 mM Tris-HCL, pH 7.4; 9 ml buffer/g liver) and centrifuged at 2000 rpm (Sorvall RTH-250, 10 minutes, 4°C). The supernatant was centrifuged (12,000 rpm, Sorvall SS-34 rotor, 20 minutes, 4°C), the resulting supernatant was centrifuged (∼30,000 rpm, Sorvall TFT-45.6, 90 minutes, 4°C) (ThermoFisher Scientific, UK), and microsomal pellets were resuspended in ice-cold SET buffer and stored at −70°C.
Microsomal protein concentration fractions were measured using a modification of a previously described method ([Lowry et al., 1951]) and total hepatic microsomal P450 as previously described ([Omura and Sato, 1964]).
as §1

[10] = Microsomal stability in mouse liver microsomes (WT, Cyp1a KO, hCYP1A1/1A2)
Experimental: The reaction was started by addition of 200 μl of NADPH to the remaining mixture of ramelteon with microsomes, and 100-μl aliquots were taken at 1, 2, 5, 10, 15, 20, and 30 minutes after the reaction start; mixed with an equal volume of ice-cold methanol containing the internal standard; incubated on ice for at least 20 minutes; and centrifuged for 15 minutes at 16,000 rcf and +4°C on Centrifuge 5415 R (Eppendorf, Hamburg, Germany). Control incubations were carried out without the cofactor or microsomes. The concentration of ramelteon in the supernatant was measured by high-performance liquid chromatography–tandem mass spectrometry (MS/MS). Chromatographic separation was performed on a Prodigy Phenyl-3 column (5 μm, 50 × 2.0 mm; Phenomenex) using an injection volume of 10 μl and a run time of 7 minutes. Mobile phase consisted of 0.1% solutions of formic acid in water (solvent A) and acetonitrile (solvent B). For elution, a linear gradient from 20% to 60% of solvent B in 4 minutes was used, followed by 3-minute equilibration at 20% B. The multiple reaction monitoring parameters for ramelteon and tacrine were 260.28, 199.2 (precursor ion) and 204.21, 171.11 (product ion), respectively. The concentrations of ramelteon were calculated from the calibration curve.

[11] = liver microsomes from TCDD-treated hCYP1A1/1A2 mice, nonlinear regression eq. 7
[12] = quinidine 200 μM, low concentration of ER
[13] = 200 μM quinidine, increased substrate concentration
[14] = 200 μM quinidine, low concentrations of MR
[15] = absence of inhibitor, low substrate concentrations
[16] = liver microsomes from TCDD-treated hCYP1A1/1A2 mice, nonlinear regression eq. 8
[17] = hCYP1A1/1A2 mice, liver microsomes

CCOc1ccc2nc3ccc(=O)cc-3oc2c1 [ER, 7-ethoxyresorufin]
Kd ([1]; read-out: Ks1 ± S.E.): 830 ± 40 nM | Kd ([1]; read-out: Ks2 ± S.E.): 13000 ± 1500 nM | CYP1A1 contribution to EROD ([2]; absence of quinidine, 1 μM ER): 70% | CYP1A2 contribution to EROD ([2]; absence of quinidine, 6 μM ER): ~45% | CYP1A1 contribution to EROD ([2]; absence of quinidine, 6 μM substrate): ~51% | CYP1A1 contribution to EROD ([2]; absence of quinidine, low (10 pM) substrate concentration): ~94% | CYP1A2 contribution to EROD ([2]; absence of quinidine, low substrate concentration): ~4.8% | Vmax for CYP1A1, EROD [2, 11]: 2800 pmol/min/mg protein | Vmax for CYP1A2, EROD [2, 11]: 1900 pmol/min/mg protein and 1909 pmol/min/mg protein | CYP1A1 contribution to EROD [2, 12]: ~22% | CYP1A2 contribution to EROD [2, 12]: 70% | non-CYP1A contribution to EROD [2, 12]: 8% | Km (recombinant human CYP1A2 [3]): 1.2 µM | Kd (recombinant human CYP1A1 [4]; read-out: Ks1 ± S.E., productive enzyme-substrate complex): 90 ± 8 nM | Kd (recombinant human CYP1A1 [4]; read-out: Ks2 ± S.E., inhibitory enzyme-substrate complex): 11000 ± 1000 nM | kcat (recombinant human CYP1A1 [4]; recombinant CYP1A1, Vmax 3300 at 71 pmol/mg protein): 0.783 s⁻¹ | Vmax (recombinant human CYP1A1 [4]; recombinant CYP1A1, enzyme concentration 71 pmol/mg protein): 3300 pmol/min/mg protein | decrease of EROD activity relative to WT animals (liver microsomes; liver microsomes from Cyp1a KO mice, untreated): 22% | constitutive EROD activity relative to WT (liver microsomes; liver microsomes from hCYP1A1/1A2 mice): 155% | EROD activity of CYP1A1 compared to CYP1A2 (times more active) (Recombinant rat CYP1A1): ~59 times | EROD activity of CYP1A1 compared with CYP1A2 (times more active) (recombinant human CYP1A1 [5]): ~2.8 times

COc1ccc2nc3ccc(=O)cc-3oc2c1 [MR, 7-methoxyresorufin]
Kd (recombinant human CYP1A2 [6]; read-out: Ks1 ± S.E.): 580 ± 80 nM | Kd (recombinant human CYP1A2 [6]; read-out: Ks2 ± S.E.): 12000 ± 3500 nM | Kd (recombinant human CYP1A1 [7]; read-out: Ks1 ± S.E., rCYP1A1): 470 ± 70 nM | Kd (recombinant human CYP1A1 [7]; read-out: Ks2 ± S.E., rCYP1A1): 1300 ± 180 nM | Non-Cyp1a contribution to MROD [8]: ≤ 1.5% | CYP1A1 contribution to MROD [8, 13]: ~9% | CYP1A2 contribution to MROD [8, 13]: ~90% | CYP1A1 contribution to MROD [8, 14]: less than 1% | CYP1A2 contribution to MROD [8, 14]: ~98% | CYP1A1 contribution to MROD ([8]; absence of inhibitor, 6 μM MR): ~18% | CYP1A2 contribution to MROD ([8]; absence of inhibitor, 6 μM MR): ~81% | CYP1A1 contribution to MROD [8, 15]: 49% | CYP1A2 contribution to MROD [8, 15]: 50% | Vmax for CYP1A1, MROD [8, 16]: 1600 pmol/min/mg protein | Vmax for CYP1A2, MROD [8, 16]: 2000 pmol/min/mg protein and 1969 pmol/min/mg protein | Kd ([9]; read-out: Ks1 ± S.E.): 960 ± 180 nM | Kd ([9]; read-out: Ks2 ± S.E.): 3400 ± 800 nM | MROD activity compared with WT animals (liver microsomes; hCYP1A1/1A2 mouse line liver microsomes): unchanged | decrease of MROD compared with WT animals (liver microsomes; liver microsomes from Cyp1a KO mice): approximately 90% | MROD activity of CYP1A1 compared to CYP1A2 (times less active) (Recombinant rat CYP1A1): ~14 times | MROD activity of CYP1A1 compared with CYP1A2 (times less active) (recombinant human CYP1A1 [5]): ~5.8 times

Clc1cc2c(cc1Cl)Oc1cc(Cl)c(Cl)cc1O2 [TCDD, 2,3,7,8-tetrachlorodibenzo-p-dioxin]
increase in MROD activity (Cyp1a/CYP1A enzymes; Cyp1a KO line, liver microsomes): 4.6 fold | increase in EROD activity relative to untreated animals (Cyp1a/CYP1A enzymes; Cyp1a KO liver): 3 fold | change in total P450 on TCDD treatment (Cyp1a/CYP1A enzymes; Cyp1a KO mice): no change | concentration of hepatic CYP1A1 estimated from EROD Vmax/kcat (Cyp1a/CYP1A enzymes; TCDD-treated hCYP1A1/1A2 mice): 59 pmol/mg microsomal protein | CYP1A enzymes as share of total hepatic P450 content after TCDD (Cyp1a/CYP1A enzymes; WT mice): 58% | increase of total hepatic cytochrome P450 (Cyp1a/CYP1A enzymes; WT mice): 2.37 fold | increase in EROD activity relative to untreated animals (Cyp1a/CYP1A enzymes; WT mice, liver microsomes): ~114 fold | increase in MROD activity (Cyp1a/CYP1A enzymes; WT mice, liver microsomes): 44 fold | total hepatic cytochrome P450 after TCDD (Cyp1a/CYP1A enzymes; WT mice, liver microsomes): 840 pmol/mg protein | CYP1A enzymes as share of total hepatic P450 content after TCDD (Cyp1a/CYP1A enzymes; hCYP1A1/1A2 mice): 46% | increase of total hepatic cytochrome P450 (Cyp1a/CYP1A enzymes; hCYP1A1/1A2 mice): 1.84 fold | increase in EROD activity relative to untreated animals (Cyp1a/CYP1A enzymes; [17]): 39 fold | increase in MROD activity (Cyp1a/CYP1A enzymes; [17]): 31 fold | total hepatic cytochrome P450 after TCDD (Cyp1a/CYP1A enzymes; [17]): 632 pmol/mg protein

Nc1c2c(nc3ccccc13)CCCC2 [tacrine]
fraction metabolized by Cyp1a2 ([10]; WT mice liver microsomes, eqs. 15 and 16): ~0.68 | fraction metabolized by CYP1A2 ([10]; hCYP1A1/1A2, mouse, microsomes, 1 µM, pH 7.4): ~0.60
